Assay results as given in patent US20220324912A1, “THERAPEUTIC PEPTIDES” (COHBAR, INC., priority 2019, published 2022).
Non-standard residues stand in square brackets, D forms with d. Residues, ends and D or L forms follow the SMILES beside them. No end group written: not given here.

Experiments:
[1] = tested on: Caspase 3/7 in C2C12 cells; assay: Caspase 3/7 Activity in C2C12 Cells; assay type: cell-based, mouse; conditions: peptides 10 μM, 24 hours, relative to 0.1% DMSO control
Experimental: The effect of the peptides on cell death/survival can be assessed using a caspase-3/7 assay in cultured cells such as mouse myoblast cells. Peptides were initially prepared as 10 mM stock in DMSO, diluted to 1 mM in H2O, and used at a final concentration of 10 μM (0.1% DMSO). […] Staurosporine (Abcam, Cambridge, Mass.) was dissolved at 10 mM in DMSO as a stock solution. Caspase-Glo 3/7 Assay Reagent was purchased from Promega (Madison, Wis.). C2C12 cell line was purchased from American Type Culture Collection (Manassas, Va.). C2C12 cells were grown in DMEM supplemented with 20% FBS with 100 IU/ml penicillin and 100 μg/ml streptomycin. Cultures were maintained at 37° C. in a humidified atmosphere of 5% CO2/95% air. C2C12 cells were seeded at 4,000 cells per well on 96-well plates. The next day cells were incubated with test peptides at 10 μM or staurosporine at concentrations between 100 nM and 5 nM using a final concentration of 0.1% DMSO and maintained at 37° C. in a humidified atmosphere of 5% CO2/95% air for 24 hours. Caspase 3/7 activity was determined using a Caspase-Glo 3/7 Assay kit according to the manufacturer's instructions. Luminescence for each sample well on the plate was measured using a Cytation 3 plate reader (BioTek, Winooski, Vt.). Activity was calculated relative to 0.1% DMSO control.

[2] = tested on: C2C12 cells; assay: ATP Levels in Cultured C2C12 Cells (CellTiter-Glo); assay type: cell-based, mouse; conditions: peptides 10 μM, 3 days with readdition every 24 hours, relative to 0.1% DMSO control
Experimental: The effect of the peptides on cellular metabolism can be assessed using an assay of ATP levels in cultured cells such as mouse myoblast cells. Peptides were initially prepared as 10 mM stock in DMSO, diluted to 1 mM in H2O, and used at a final concentration of 10 μM (0.1% DMSO). […] Lovastatin was prepared as 10 mM stock in 70% Ethanol and used at final concentration of 10 µM containing 0.1% DMSO. CellTiter-Glo® Assay kit was purchased from Promega (Madison, Wis.). […] C2C12 cells were grown in DMEM medium supplemented with 20% FBS with 100 IU/ml penicillin and 100 μg/ml streptomycin. […] C2C12 cells were seeded at 800 cells per well on 96-well plates. […] ATP levels were determined using a CellTiter-Glo Assay kit according to the manufacturer's instructions. Luminescence for each sample well on the plate was measured using a Cytation 3 plate reader (BioTek, Winooski, Vt.). Activity was calculated relative to 0.1% DMSO treated control. The relative standard deviation of the result for the 0.1% DMSO treated control was <5%. […] ATP levels for treatment with lovastatin (10 μM) were <50% of the 0.1% DMSO treated control value.

[3] = tested on: C2C12 cells; assay: Cell Proliferation in C2C12 Cells (Cyquant DNA dye); assay type: cell-based, mouse; conditions: peptides 10 μM, 72 hours with readdition every 24 hours, relative to 0.1% DMSO control
Experimental: The effect of the peptides on cell proliferation was assessed using a DNA dye binding assay in cultured cells such as mouse myoblast cells. Peptides were initially prepared as 10 mM stock in DMSO, diluted to 1 mM in H2O, and added at a final concentration of 10 μM (0.1% DMSO). Lovastatin was used as a growth arrest control at final concentration of […]. […] C2C12 cells were grown in DMEM supplemented with 20% FBS with 100 IU/ml penicillin and 100 μg/ml streptomycin. […] C2C12 cells were seeded at 800 cells per well on 96-well plates. […] Cell proliferation was determined using Cyquant Direct Nucleic Acid Stain (Thermo Fisher Scientific, Waltham, Mass.) according to the manufacturer's instructions. Fluorescence for each sample well on the plate was measured using a Cytation 3 plate reader at Ex/Em=495/535 nm (BioTek, Winooski, Vt.). Activity was calculated relative to 0.1% DMSO untreated control. The relative standard deviation for the lovastatin control was <27%. The cell proliferation for the lovastatin control was <25% of the value for untreated control.

[4] = tested on: 3T3-L1 mouse adipocytes; assay: Free Fatty Acid Levels in 3T3-L1 Mouse Adipocytes (Example 12, 10 μM); assay type: cell-based; conditions: peptides 10 μM, 20-22 hours then 3 hours with isoproterenol 1 nM, 3T3-L1 mouse adipocytes
Experimental: The effect of the peptides on fatty acid metabolism can be assessed using an assay of free fatty acid levels in cultured cells such as mouse adipocytes. Peptides were initially prepared as 10 mM stock in DMSO, diluted to 1 mM in H2O, and used at a final concentration of 10 μM (0.1% DMSO). […] After 20-22 hours, 1 nM isoproterenol was added to all wells except untreated controls and test peptides were replenished. Insulin at 100 nM was added to control wells. […] Free fatty acid concentrations in the media were determined using a Free Fatty Acid Assay kit (Zen-Bio) according to the manufacturer's instructions using a Cytation 3 plate reader at 540 nm (BioTek, Winooski, Vt.). Absorbance values were corrected for untreated background and expressed relative to isoproterenol treated cells. Treatment with isoproterenol (1 nM) alone was used as the free fatty acid level stimulatory control. The relative standard deviation of the isoproterenol control was <10%. […] Free fatty acid levels for insulin (100 nM) treatment were <5% of the isoproterenol control value.

[5] = tested on: C2C12 cells; assay: Cellular ROS Levels Induced by TBHP in C2C12 Cells (DCFDA); assay type: cell-based, mouse; conditions: peptides 10 μM, 18-20 hours, then TBHP 100 μM 1 hour, relative to TBHP control
Experimental: The protective or synergistic effect of the peptides on cellular levels of reactive oxygen species (ROS) induced by oxidative stress can be assessed using an assay of ROS in cultured cells such as mouse myoblasts exposed to a suitable oxidative stress. Peptides were initially prepared as 10 mM stock in DMSO, diluted to 1 mM in H2O, and added at a final concentration of 10 μM (0.1% DMSO). […] TBHP was used at final concentration of 100 μM. Sulforaphane at final concentration of 10 µM was used as a protective control against TBHP induced ROS production. […] C2C12 cells were grown in DMEM supplemented with 20% FBS with 100 IU/ml penicillin and 100 μg/ml streptomycin. […] C2C12 cells were seeded at 7,500 cells per well on 96-well plates. […] After 18-20 hours of incubation the cells were loaded with DCFDA for 45 min. TBHP at 100 μM was then added to the appropriate wells for 1 hour. ROS activity was determined using a DCFDA Cellular ROS Detection Assay kit (Abcam, Cambridge, Mass.) according to the manufacturer's instructions. Fluorescence in each sample well on the plate was measured using a Cytation 3 plate reader at Ex/Em=485/535 nm (BioTek, Winooski, Vt.). Activity was calculated relative to TBHP control. The relative standard deviation of the sulforaphane control was <20%. The ROS level produced by the sulforaphane control in the presence of TBHP was 52% of the TBHP control.

[6] = tested on: Caspase 3/7 in MDA-MB-231 cells; assay: Caspase 3/7 Activity in MDA-MB-231 Cells (Caspase-Glo 3/7); assay type: cell-based, human; conditions: peptides 10 μM, 18 hours, relative to DMSO control
Experimental: The effect of the peptides on cell death/survival can be assessed using a caspase-3 assay. Peptides were dissolved with DMSO at 10 mM stock. […] Staurosporine (Selleckchem) was dissolved with DMSO at 1 mM stock. Caspase-Glo 3/7 Assay Reagent was purchased from Promega (Madison, Wis.). MDA-MB-231 human breast cancer cell line was purchased from American Type Culture Collection (Manassas, Va.). MDA-MB-231 cells were grown in DMEM Medium supplemented with 10% FBS. 100 μg/ml penicillin and 100 μg/ml streptomycin were added to the culture medium. Cultures were maintained at 37° C. in a humidified atmosphere of 5% CO2 and 95% air. MDA-MB-231 cells were incubated with test peptides in duplicate at 10 μM at 37° C. in a humidified atmosphere of 5% CO2 and 95% air for 18 hours. 25 μl of Caspase-Glo 3/7 Assay Reagent was added to each well and incubated at 37° C., 5% CO2 for 1 hour. Luminescence for each sample well on the plate was measured by Envision 2104 Multilabel Reader (PerkinElmer, Santa Clara, Calif.). Activity was calculated relative to DMSO control.

[7] = tested on: MCF-7 cells; conditions: human, 72 hours, 10 μM
Experimental: Peptides and reference compound staurosporine (Selleckchem) were dissolved with DMSO at 10 mM stock. CellTiter 96® AQueous One Solution Reagent (MTS assay reagent) was purchased from Promega (Madison, Wis.). MCF-7 human breast cancer cell line was purchased from American Type Culture Collection (Manassas, Va.). MCF-7 cells were grown in EMEM Medium supplemented with 10% FBS and 0.01 mg/ml human recombinant insulin. 100 μg/ml penicillin and 100 μg/ml streptomycin were added to the culture medium. Cells were incubated with test peptides at 10 μM at 37° C. in a humidified atmosphere of 5% CO2 and 95% air for 72 hours. 5 μl of CellTiter 96® AQueous One Solution Reagent (MTS assay reagent) was added to each well and incubated at 37° C., 5% CO2 for 5 hours. Absorbance at 492 nm was recorded by Envision 2104 Multilabel Reader. Treatment with DMSO alone was used as the cell viability activity control.

[8] = tested on: MDA-MB-231 cells; assay: Cell viability, MTS Assay in MDA-MB-231 Cells; assay type: cell-based; conditions: human, 72 hours
Experimental: Test compounds and reference compound staurosporine (Selleckchem) were all dissolved with DMSO at 10 mM stock. […] Activity was calculated relative to DMSO control. […] Cell viability was 3% of the DMSO control value for Staurosporine (10 uM).

[9] = tested on: 3T3-L1 adipocytes; assay: Free Fatty Acid Levels in 3T3-L1 Adipocytes (Example 4, 25 μM); assay type: cell-based, mouse; conditions: peptides 25 μM, 20-22 hours then 3 hours with isoproterenol 1 nM, 3T3-L1 adipocytes
Experimental: Following 12-15 days' differentiation, test peptides were added to a final concentration of 25 μM and incubated for 20-22 hours in Adipocyte Maintenance Medium. After 20-22 hours, isoproterenol (1 nM) was added to all wells except untreated controls and test peptides were replenished. Cells were incubated for a further 3 hours in Assay Buffer (Zen-Bio). Free fatty acid concentrations in the media were determined using a Free Fatty Acid Assay Kit (Zen-Bio) according to the manufacturer's instructions using a plate reader (540 nm). Absorbance values were corrected for untreated background and expressed relative to isoproterenol treated cells. Treatment with isoproterenol (1 nM) alone was used as the free fatty acid level stimulatory control. The relative standard deviation of the isoproterenol control was <10%. […] Free fatty acid levels for insulin (100 nM) treatment were <5% of the isoproterenol control value.

15 (LPGS[dA]ILTNPVLGWVWV) [compound 15]
Caspase 3/7 activity, Percent of Control Activity [1]: 105.6% | ATP levels, Percent of Control Activity [2]: 101.6% | Cell proliferation, Percent of Control [3]: 115.1% | Free fatty acid levels, Percent of Isoproterenol Control Activity [4]: 92.8% | Cellular ROS levels induced by TBHP, Percent of Control [5]: 101.5%

16 (PGS[dA]ILTNPVLGWVWV) [compound 16]
Caspase 3/7 activity, Percent of Control Activity [1]: 99.7% | ATP levels, Percent of Control Activity [2]: 102.7% | Cell proliferation, Percent of Control [3]: 100.3% | Free fatty acid levels, Percent of Isoproterenol Control Activity [4]: 97.2% | Cellular ROS levels induced by TBHP, Percent of Control [5]: 106.0%

17 (GS[dA]ILTNPVLGWVWV) [compound 17]
Caspase 3/7 activity, Percent of Control Activity [1]: 97.1% | ATP levels, Percent of Control Activity [2]: 103.8% | Cell proliferation, Percent of Control [3]: 110.0% | Free fatty acid levels, Percent of Isoproterenol Control Activity [4]: 88.5% | Cellular ROS levels induced by TBHP, Percent of Control [5]: 100.8%

CC[C@H](C)[C@H](NC(=O)CNC(=O)[C@H](CCC(=O)O)NC(=O)[C@H](CCCNC(=N)N)NC(=O)CNC(=O)[C@H](Cc1c[nH]c2ccccc12)NC(=O)[C@@H]1CCCN1C(=O)[C@H](Cc1c[nH]cn1)NC(=O)CNC(=O)CNC(=O)[C@H](CCC(=O)O)NC(=O)[C@H](CO)NC(=O)[C@H](CC(C)C)NC(=O)[C@@H]1CCCN1C(=O)CNC(=O)[C@H](CCCCN)NC(=O)[C@@H](NC(=O)[C@@H](NC(=O)[C@@H](N)CCSC)C(C)C)C(C)C)C(=O)O [compound 25] (H-MVVKGPLSEGGHPWGREGI-OH; N-terminus and C-terminus assumed)
Caspase 3/7 activity, Percent of Control Activity [6]: 46% | MTS cell viability, Percent of Control Activity [7]: 40% | MTS cell viability, Percent of Control Activity [8]: 76% | Free fatty acid levels, Percent of Control Value (percent isoproterenol control) [9]: 61%

CC[C@H](C)[C@H](NC(=O)[C@H](C)NC(=O)[C@H](Cc1c[nH]c2ccccc12)NC(=O)[C@@H](N)CCSC)C(=O)N[C@@H](CC(=O)O)C(=O)N[C@@H](CCC(=O)O)C(=O)N[C@@H](CCCCN)C(=O)N[C@@H](C)C(=O)N[C@H](C(=O)N[C@@H](CCC(=O)O)C(=O)N[C@@H](C)C(=O)N[C@@H](CO)C(=O)NCC(=O)N[C@@H](CCC(=O)O)C(=O)O)C(C)C [compound 30] (H-MWAIDEKAVEASGE-OH; N-terminus and C-terminus assumed)
Caspase 3/7 activity, Percent of Control Activity [6]: 50% | MTS cell viability, Percent of Control Activity [7]: 61% | MTS cell viability, Percent of Control Activity [8]: 76% | Free fatty acid levels, Percent of Control Value (percent isoproterenol control) [9]: 85%
